The source of these data is US9242970B2 (ACTELION PHARMACEUTICALS LTD., priority 2010, dated 2016).

Chain of human orexin-1 receptor (O43613 whole entry): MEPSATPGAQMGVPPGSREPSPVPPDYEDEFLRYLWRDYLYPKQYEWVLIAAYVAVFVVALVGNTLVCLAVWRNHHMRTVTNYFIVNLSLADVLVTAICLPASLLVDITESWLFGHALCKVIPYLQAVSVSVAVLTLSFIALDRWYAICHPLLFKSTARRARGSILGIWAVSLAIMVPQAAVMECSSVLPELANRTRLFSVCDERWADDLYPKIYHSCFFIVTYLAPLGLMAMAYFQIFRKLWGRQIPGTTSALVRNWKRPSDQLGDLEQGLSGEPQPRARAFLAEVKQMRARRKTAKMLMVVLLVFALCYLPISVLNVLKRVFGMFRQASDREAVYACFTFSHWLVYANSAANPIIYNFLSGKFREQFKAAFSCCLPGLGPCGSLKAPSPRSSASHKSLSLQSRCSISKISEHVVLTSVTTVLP

The first assay has as its target human orexin-1 receptor (Homo sapiens (Human), UniProt O43613). The assay is described as follows: In vitro assay: intracellular calcium measurements (FLIPR), antagonistic activity. The assay is classed as cell-based. The settings on record: CHO cells, 3 nM orexin-A, compound incubation 120 min; marked values are geometric means of n = 2-6; read-out: IC50 OX1. The procedure: In Vitro Assay: Intracellular Calcium Measurements:
Chinese hamster ovary (CHO) cells expressing the human orexin-1 receptor and the human orexin-2 receptor, respectively, are grown in culture medium (Ham F-12 with L-Glutamine) containing 300 µg/ml G418, 100 U/ml penicillin, 100 µg/ml streptomycin and 10% heat inactivated fetal calf serum (FCS). The cells are seeded at 20,000 cells/well into 384-well black clear bottom sterile plates (Greiner). The seeded plates are incubated overnight at 37° C. in 5% CO2.
Fluorescence is measured for each well at 1 second intervals, and the height of each fluorescence peak is compared to the height of the fluorescence peak induced by 3 nM orexin-A with vehicle in place of antagonist. […] Optimized conditions were achieved by adjustment of pipetting speed and cell splitting regime. The calculated IC50 values may fluctuate depending on the daily cellular assay performance. Fluctuations of this kind are known to those skilled in the art.
Take `COc1cccc(F)c1[C@@H]1C[C@@H](O)C(=O)N1Cc1ccc(OC(F)(F)F)cc1` (racemic) [Example 293, rac-(3R*,5S*)-5-(2-fluoro-6-methoxyphenyl)-3-hydroxy-1-(4-(trifluoromethoxy)benzyl)pyrrolidin-2-one]: the IC50 was 2750 nM. On to `COc1cccc(Cl)c1[C@@H]1C[C@@H](O)C(=O)N1Cc1ccc(OC(F)(F)F)cc1` (racemic) [Example 294, rac-(3R*,5S*)-5-(2-chloro-6-methoxyphenyl)-3-hydroxy-1-(4-(trifluoromethoxy)benzyl)pyrrolidin-2-one], for which the IC50 stood at 2440 nM. On the same count and under the same terms, as for `O=C1[C@@H](Cl)C[C@@H](c2cccc3c2OCCO3)N1Cc1ccc(OC(F)(F)F)cc1` (racemic) [Example 307, rac-(3S*,5S*)-3-chloro-5-(2,3-dihydrobenzo[b][1,4]dioxin-5-yl)-1-(4-(trifluoromethoxy)benzyl)pyrrolidin-2-one], the figure is 563 nM; as for `COc1ccc2ccccc2c1[C@@H]1C[C@H](F)C(=O)N1Cc1ccc(OC(F)(F)F)cc1` (racemic) [Example 315, rac-(3S*,5S*)-3-fluoro-5-(2-methoxynaphthalen-1-yl)-1-(4-(trifluoromethoxy)benzyl)pyrrolidin-2-one], 1200 nM. The same measure, in the same setting: as for `COc1c(F)ccc(F)c1[C@@H]1C[C@@H](Cl)C(=O)N1Cc1ccc(OC(F)(F)F)cc1` (racemic) [Example 317, rac-(3R*,5S*)-3-chloro-5-(3,6-difluoro-2-methoxyphenyl)-1-(4-(trifluoromethoxy)benzyl)pyrrolidin-2-one], the figure is 1070 nM; as for `COc1c(F)ccc(F)c1[C@@H]1C[C@H](Cl)C(=O)N1Cc1ccc(OC(F)(F)F)cc1` (racemic) [Example 320, rac-(3S*,5S*)-3-chloro-5-(3,6-difluoro-2-methoxyphenyl)-1-(4-(trifluoromethoxy)benzyl)pyrrolidin-2-one], 1050 nM.

As for `O=C1[C@H](Cl)C[C@@H](c2cccc3c2OCCO3)N1Cc1ccc(OC(F)(F)F)cc1` (racemic) [Example 322, rac-(3R*,5S*)-3-chloro-5-(2,3-dihydrobenzo[b][1,4]dioxin-5-yl)-1-(4-(trifluoromethoxy)benzyl)pyrrolidin-2-one], the IC50 is 1080 nM.

In the case of `COc1cccc(C)c1[C@@H]1C[C@H](F)C(=O)N1Cc1ccc(OC(F)(F)F)cc1` (racemic) [Example 325, rac-(3S*,5S*)-3-fluoro-5-(2-methoxy-6-methylphenyl)-1-(4-(trifluoromethoxy)benzyl)pyrrolidin-2-one], the IC50 is 1380 nM. On to `CCOc1c(F)cccc1[C@@H]1C[C@@H](Cl)C(=O)N1Cc1ccc(OC(F)(F)F)cc1` (racemic) [Example 327, rac-(3R*,5S*)-3-chloro-5-(2-ethoxy-3-fluorophenyl)-1-(4-(trifluoromethoxy)benzyl)pyrrolidin-2-one], for which the IC50 came to 1060 nM. Same read-out and setting: as for `COc1ccc(F)c(OC)c1[C@@H]1C[C@@H](Cl)C(=O)N1Cc1ccc(OC(F)(F)F)cc1` (racemic) [Example 328, rac-(3R*,5S*)-3-chloro-5-(3-fluoro-2,6-dimethoxyphenyl)-1-(4-(trifluoromethoxy)benzyl)pyrrolidin-2-one], the figure is 739 nM. Turning to `CCOc1c(F)cccc1[C@@H]1C[C@H](Cl)C(=O)N1Cc1ccc(OC(F)(F)F)cc1` (racemic) [Example 329, rac-(3S*,5S*)-3-chloro-5-(2-ethoxy-3-fluorophenyl)-1-(4-(trifluoromethoxy)benzyl)pyrrolidin-2-one], the IC50 was 885 nM.

Take `COc1ccc(F)c(OC)c1[C@@H]1C[C@H](Cl)C(=O)N1Cc1ccc(OC(F)(F)F)cc1` (racemic) [Example 330, rac-(3S*,5S*)-3-chloro-5-(3-fluoro-2,6-dimethoxyphenyl)-1-(4-(trifluoromethoxy)benzyl)pyrrolidin-2-one]: the IC50 is 227 nM.

The same assay, now with this note: CHO cells, 3 nM orexin-A, compound incubation time of 10 min; marked values are geometric means of n = 2-6; read-out: IC50 OX1.
As for `COc1cccc(F)c1[C@@H]1C[C@H](O)C(=O)N1Cc1ccc(OC(F)(F)F)cc1` (racemic) [Example 265, rac-(3S*,5S*)-5-(2-fluoro-6-methoxyphenyl)-3-hydroxy-1-(4-(trifluoromethoxy)benzyl)pyrrolidin-2-one], the IC50 was 730 nM.
